Ki data for 3 compounds are collected here from BindingDB's records for doi:10.1021/jm970550g (Northwestern University, 1998).

This assay in a line: Compound was tested for binding affinity against neuronal nitric oxide synthase(nNOS).
As to `C#CCNC(=N)NCCCC(N)C(=O)O` (stereo not drawn) [2-Amino-5-(N'-prop-2-ynyl-guanidino)-pentanoic acid], the Ki amounted to 430 nM. That is a sub-micromolar value.
Regarding `C=CCNC(=N)NCCCC(N)C(C)=O` (stereo not drawn) [1-Acetyl-4-(N'-allyl-guanidino)-butyl-ammonium], the Ki was 200 nM.
On to `CCNC(=N)NCCCC(N)C(=O)O` (stereo not drawn) [2-Amino-5-(N'-ethyl-guanidino)-pentanoic acid], for which the affinity corresponds to a Ki of 16000 nM.
